Laboratory results taken from patent US7645882B2, “Inhibitor of protein modification products formation” (priority 2003, dated 2010).

Key:
[1] = Solubility test at different pH; format: physicochemical; conditions: for condition of the solution: 10 mg per 1 ml purified water
Procedure: TM-2002 was added in purified water to be 10 mg per 1 ml and added hydrochloride to adjust to pH 2.0 and solved. Then, this solution was adjusted to pH 7.0, 8.0 and 2,0 (unadjust) by 1N sodium hydrate to prepare 3 solutions. These solutions were put on warming, dark cold place and after 24 hours, conditions of the solutions were observed. […] As the result, stable TM-2002 injectable formulation in its solubility may be prepared by keeping acidic condition using inorganic acid such as hydrochloride, sulfuric acid, or various organic acid, or by using TM-2002 hydrochloride or sulfate as material which is made from said acids.

SHR/NDmcr-cp rats = assay: In vivo endoplasmic reticula stress alleviation, anti-ORP150 immunostaining of kidney; set-up: species or system rat; conditions: 100 mg/1 kg body weight by diet, 33 weeks aged
Procedure: Endoplasmic reticula stress alleviation effect by TM-2002 was examined using SHR/NDmcr-cp (Disease Model Cooperative Research Association) rats, which have been known their high blood pressure, hyperglycemia, hyperlipemia, obesity and hyperinsulinemia and renal function disorder while aging, and immunostained utilizing anti-ORP150 antibody. The stained section samples which were used for staining were prepared as following manner; SHR/NDmcr-cp rats which were administered the desired amount of test compound TM-2002 (dose: 100 mg/1 kg body weight) by diet (30 g daily), the rats which were administered no drug and SHR (hypertension) rats and Wistar Kyoto rats (control); kidney tissues of each rat were obtained after the end of drug administration period (33 weeks aged); all of tissues were fixed by Carnoy and embedded in paraffin. The staining of each samples was carried out by Catalyzed Sifnal Amplification(CSA) System (DAKO) according to their protocol. […] The samples were observed by microscopic visualization with optical microscope (Olympus) and analyzed the result. […]

condition of the solution ([1]; pH 2.0, after 24 hours): kept clear solution | condition of the solution ([1]; pH 7.0, after 24 hours): observed precipitate | condition of the solution ([1]; pH 8.0, after 24 hours): observed precipitate | change of color of the solution ([1]; pH 7.0 and pH 8.0 solutions, after 24 hours): the change of color was shown
Structure (SMILES): Cc1ncc2c(c1O)C(c1c(C)nn(-c3ccccc3)c1O)OC2 (centres unmarked) [compound 68, 1-(5-hydroxy-3-methyl-1-phenyl-1H-pyrazol-4-yl)-6-methyl-1,3-dihydro-furo[3,4-c]pyridin-7-ol]
ORP150 positive staining site / ER stress in kidney (SHR/NDmcr-cp rats): decrease of positive staining site and suppressing ER stress
